Experiments:
Assay in all cases: Dundee kinase panel
Format in all cases: biochemical
Conditions in all cases: for remaining activity at 1 µM: read-out: residual activity
[1] = molecular target: T1, NUAK1 (Homo sapiens, UniProt O60285)
T1 construct: lines 1-140) and Reaction Biology
T1 sequence (O60285 1-661): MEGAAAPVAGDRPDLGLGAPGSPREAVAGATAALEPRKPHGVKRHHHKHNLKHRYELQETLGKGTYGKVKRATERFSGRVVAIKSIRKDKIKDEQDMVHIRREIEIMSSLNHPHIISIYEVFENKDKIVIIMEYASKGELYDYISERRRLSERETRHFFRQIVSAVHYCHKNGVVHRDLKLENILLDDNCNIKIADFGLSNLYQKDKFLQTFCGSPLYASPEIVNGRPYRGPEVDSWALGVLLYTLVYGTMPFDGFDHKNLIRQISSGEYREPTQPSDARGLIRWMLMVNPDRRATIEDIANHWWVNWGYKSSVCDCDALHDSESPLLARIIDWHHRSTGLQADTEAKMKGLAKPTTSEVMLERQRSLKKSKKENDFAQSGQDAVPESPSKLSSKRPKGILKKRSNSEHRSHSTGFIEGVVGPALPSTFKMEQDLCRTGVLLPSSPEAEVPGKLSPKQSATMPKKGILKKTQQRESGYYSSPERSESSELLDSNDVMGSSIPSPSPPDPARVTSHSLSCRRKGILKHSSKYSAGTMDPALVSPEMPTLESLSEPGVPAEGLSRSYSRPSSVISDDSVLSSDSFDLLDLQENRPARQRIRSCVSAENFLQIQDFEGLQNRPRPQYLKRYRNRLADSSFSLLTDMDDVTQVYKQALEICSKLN
Protocol: (§1) Compounds were screened at 1 μM. For key hits, pIC50 values were then determined by HTRF as above. […] Stability in mouse and human liver microsomes was determined by Cyprotex.

[2] = molecular target: T2, EPH-B2 (Homo sapiens, UniProt P29323)
T2 construct: lines 1-140) and Reaction Biology
T2 sequence (P29323 19-1055): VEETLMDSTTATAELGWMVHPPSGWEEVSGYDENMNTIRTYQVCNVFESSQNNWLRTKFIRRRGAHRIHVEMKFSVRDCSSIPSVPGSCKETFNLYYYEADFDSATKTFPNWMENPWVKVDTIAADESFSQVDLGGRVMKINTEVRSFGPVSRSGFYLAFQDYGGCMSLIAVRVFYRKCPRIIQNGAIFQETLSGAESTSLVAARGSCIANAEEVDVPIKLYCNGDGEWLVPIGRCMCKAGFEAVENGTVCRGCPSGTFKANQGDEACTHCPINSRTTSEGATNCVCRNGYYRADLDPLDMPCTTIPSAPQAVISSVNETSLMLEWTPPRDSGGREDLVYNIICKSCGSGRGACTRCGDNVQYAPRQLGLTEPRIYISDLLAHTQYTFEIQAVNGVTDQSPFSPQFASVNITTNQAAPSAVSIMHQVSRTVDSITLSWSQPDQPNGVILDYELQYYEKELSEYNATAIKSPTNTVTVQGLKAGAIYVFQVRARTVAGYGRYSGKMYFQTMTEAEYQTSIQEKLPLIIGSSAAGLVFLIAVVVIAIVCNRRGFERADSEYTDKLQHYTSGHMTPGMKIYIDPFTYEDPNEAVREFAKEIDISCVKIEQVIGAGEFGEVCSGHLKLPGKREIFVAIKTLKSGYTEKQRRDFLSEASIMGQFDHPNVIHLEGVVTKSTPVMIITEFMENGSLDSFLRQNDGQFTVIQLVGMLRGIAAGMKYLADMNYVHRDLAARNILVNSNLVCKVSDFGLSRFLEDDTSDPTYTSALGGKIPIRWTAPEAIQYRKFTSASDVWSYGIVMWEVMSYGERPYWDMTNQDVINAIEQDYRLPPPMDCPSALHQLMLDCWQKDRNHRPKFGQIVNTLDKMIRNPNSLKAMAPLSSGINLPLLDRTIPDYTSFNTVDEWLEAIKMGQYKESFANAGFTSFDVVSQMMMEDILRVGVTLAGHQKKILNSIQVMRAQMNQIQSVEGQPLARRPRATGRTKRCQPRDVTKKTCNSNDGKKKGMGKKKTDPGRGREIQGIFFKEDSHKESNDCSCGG
Protocol: as §1

[3] = molecular target: T3, SGK1 (Homo sapiens, UniProt O00141)
T3 construct: lines 1-140) and Reaction Biology
T3 sequence (O00141 1-431): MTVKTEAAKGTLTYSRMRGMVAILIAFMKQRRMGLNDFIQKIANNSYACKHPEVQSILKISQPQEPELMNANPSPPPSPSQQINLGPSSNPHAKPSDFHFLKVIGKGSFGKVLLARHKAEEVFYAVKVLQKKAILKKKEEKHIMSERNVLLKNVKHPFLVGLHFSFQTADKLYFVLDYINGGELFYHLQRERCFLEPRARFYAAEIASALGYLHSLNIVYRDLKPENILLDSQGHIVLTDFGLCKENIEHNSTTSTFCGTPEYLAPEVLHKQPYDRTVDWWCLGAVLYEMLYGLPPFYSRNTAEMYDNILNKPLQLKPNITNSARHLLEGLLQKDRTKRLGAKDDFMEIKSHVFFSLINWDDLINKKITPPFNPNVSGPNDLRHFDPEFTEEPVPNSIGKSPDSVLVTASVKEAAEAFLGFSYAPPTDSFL
Protocol: as §1

[4] = molecular target: T4, PDGFRA (Homo sapiens, UniProt P16234)
T4 construct: lines 1-140) and Reaction Biology
Protocol: as §1

[5] = molecular target: T5, IR (Homo sapiens, UniProt P06213)
T5 construct: lines 1-140) and Reaction Biology
Protocol: as §1

T4 sequence (P16234 24-1089): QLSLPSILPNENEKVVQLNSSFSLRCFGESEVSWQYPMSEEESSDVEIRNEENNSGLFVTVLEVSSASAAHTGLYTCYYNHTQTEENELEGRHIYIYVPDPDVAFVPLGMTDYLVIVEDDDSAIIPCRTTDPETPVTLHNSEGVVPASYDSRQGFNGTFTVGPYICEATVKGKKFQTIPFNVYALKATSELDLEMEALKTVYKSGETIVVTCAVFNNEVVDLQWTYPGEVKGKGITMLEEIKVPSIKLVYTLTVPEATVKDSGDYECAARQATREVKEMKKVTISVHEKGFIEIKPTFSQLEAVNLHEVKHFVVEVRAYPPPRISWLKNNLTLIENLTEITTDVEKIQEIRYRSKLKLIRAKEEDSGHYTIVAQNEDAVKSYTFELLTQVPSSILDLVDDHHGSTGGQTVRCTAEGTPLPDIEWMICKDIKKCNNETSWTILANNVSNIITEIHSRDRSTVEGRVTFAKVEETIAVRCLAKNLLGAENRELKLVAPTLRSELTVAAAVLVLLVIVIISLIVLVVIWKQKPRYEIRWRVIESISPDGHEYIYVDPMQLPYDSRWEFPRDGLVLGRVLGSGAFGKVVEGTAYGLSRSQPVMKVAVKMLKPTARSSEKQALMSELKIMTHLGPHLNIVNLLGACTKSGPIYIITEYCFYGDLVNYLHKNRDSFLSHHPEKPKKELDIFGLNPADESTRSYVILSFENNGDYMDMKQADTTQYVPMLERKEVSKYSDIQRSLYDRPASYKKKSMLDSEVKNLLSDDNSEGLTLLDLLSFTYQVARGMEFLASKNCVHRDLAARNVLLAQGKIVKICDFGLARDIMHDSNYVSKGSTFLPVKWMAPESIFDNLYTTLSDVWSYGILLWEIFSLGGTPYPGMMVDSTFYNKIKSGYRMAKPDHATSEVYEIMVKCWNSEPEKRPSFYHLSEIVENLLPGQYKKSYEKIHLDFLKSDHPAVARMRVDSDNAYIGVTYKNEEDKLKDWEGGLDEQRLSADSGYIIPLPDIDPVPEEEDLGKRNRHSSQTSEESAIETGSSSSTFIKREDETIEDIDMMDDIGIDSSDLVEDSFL
T5 sequence (P06213 28-1382): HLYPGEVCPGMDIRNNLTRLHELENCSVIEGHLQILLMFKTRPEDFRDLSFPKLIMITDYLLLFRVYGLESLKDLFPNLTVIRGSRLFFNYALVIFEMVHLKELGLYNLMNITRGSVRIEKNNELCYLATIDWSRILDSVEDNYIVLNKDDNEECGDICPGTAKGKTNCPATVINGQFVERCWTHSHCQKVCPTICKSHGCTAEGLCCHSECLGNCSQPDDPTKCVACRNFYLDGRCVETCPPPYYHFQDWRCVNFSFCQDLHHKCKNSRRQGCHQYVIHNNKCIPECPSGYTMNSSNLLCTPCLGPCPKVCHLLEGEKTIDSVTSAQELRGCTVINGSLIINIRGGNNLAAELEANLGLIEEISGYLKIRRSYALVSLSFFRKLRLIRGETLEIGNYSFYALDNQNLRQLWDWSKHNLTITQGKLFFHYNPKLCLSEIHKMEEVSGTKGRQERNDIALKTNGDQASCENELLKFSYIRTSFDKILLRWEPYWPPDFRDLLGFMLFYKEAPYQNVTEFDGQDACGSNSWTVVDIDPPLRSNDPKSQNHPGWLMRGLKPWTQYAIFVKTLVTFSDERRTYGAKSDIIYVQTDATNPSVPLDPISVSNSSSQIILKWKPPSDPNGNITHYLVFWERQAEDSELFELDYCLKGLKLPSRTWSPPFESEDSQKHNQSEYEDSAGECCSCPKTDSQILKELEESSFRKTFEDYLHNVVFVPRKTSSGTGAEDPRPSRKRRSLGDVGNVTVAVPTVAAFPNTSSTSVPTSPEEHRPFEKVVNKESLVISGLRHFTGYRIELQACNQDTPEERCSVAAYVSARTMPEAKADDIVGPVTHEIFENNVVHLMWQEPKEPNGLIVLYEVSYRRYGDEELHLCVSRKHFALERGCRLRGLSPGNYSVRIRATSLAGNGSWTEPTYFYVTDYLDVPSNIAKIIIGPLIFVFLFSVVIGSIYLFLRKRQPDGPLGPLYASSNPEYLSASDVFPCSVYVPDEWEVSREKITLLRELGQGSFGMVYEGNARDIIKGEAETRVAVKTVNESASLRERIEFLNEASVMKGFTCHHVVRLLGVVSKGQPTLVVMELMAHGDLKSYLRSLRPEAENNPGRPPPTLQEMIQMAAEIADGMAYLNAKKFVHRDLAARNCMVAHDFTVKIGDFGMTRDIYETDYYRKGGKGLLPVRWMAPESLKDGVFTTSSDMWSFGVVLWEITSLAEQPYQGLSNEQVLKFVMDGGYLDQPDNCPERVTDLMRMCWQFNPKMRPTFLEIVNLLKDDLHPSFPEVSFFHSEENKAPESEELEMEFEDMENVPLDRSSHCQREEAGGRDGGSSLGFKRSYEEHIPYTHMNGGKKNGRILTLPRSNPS

| Compound | remaining activity at 1 µM [1] [%] | remaining activity at 1 µM [2] [%] | remaining activity at 1 µM [3] [%] | remaining activity at 1 µM [4] [%] | remaining activity at 1 µM [5] [%] | residual activity ([1]; 1 μM) [%] | residual activity ([2]; 1 μM) [%] | residual activity ([3]; 1 μM) [%] | residual activity ([4]; 1 μM) [%] | residual activity ([5]; 1 μM) [%] |
| --- | --- | --- | --- | --- | --- | --- | --- | --- | --- | --- |
| O=C1Cc2c([nH]c3ccc(Br)cc23)-c2ccccc2N1 [Kenpaullone] | 79 | 99 | 101 | 48 | 43 |  |  |  |  |  |
| O=C1Nc2ccc(I)cc2/C1=C/c1cc(Br)c(O)c(Br)c1 [GW5074] | 63 | 94 | 91 | 24 | 26 |  |  |  |  |  |
| Nc1ncc(C(=O)NC2CN(C(=O)C3CC3)C2)c2ccc(-c3cccc(F)c3)nc12 [GNE-495] |  |  |  |  |  | 49 | 102 | 55 | 97 | 107 |
| Oc1ncnc2c1c(-c1ccccc1)cn2-c1ccccc1 [F1386-0303, 5,7-diphenyl-7H-pyrrolo[2,3-d]pyrimidin-4-ol] | 48 | 78 | 101 | 93 | 118 |  |  |  |  |  |
| COCCOc1ccc(-c2cn(-c3ccccc3)c3nc[nH]c(=O)c23)cc1 [DMX-5804, 5-[4-(2-methoxy-ethoxy)-phenyl]-7-phenyl-3,7-dihydro-pyrrolo[2,3-d]pyrimidin-4-one] | 14 | 102 | 104 | 88 | 115 |  |  |  |  |  |

Reference: publication PMC6458995, “MAP4K4 Inhibition Promotes Survival of Human Stem Cell-Derived Cardiomyocytes and Reduces Infarct Size In Vivo” (Cell Stem Cell, 2019)
